How the values were obtained:
Hyaluronic Acid = experiment: Hyaluronic acid ELISA on extracts of treated MatTek EpiDermFT (EFT-200) full thickness skin equivalent cultures; type: cell-based, human; conditions: topical 0.5%, 1.0%, 2.0% in water, 20-24 hours, EFT-200 cultures, vs vehicle Control; dose-responsive
Procedure: (§1) To evaluate skin anti-aging benefits of n-acetyl glucosamine and niacinamide. An in vitro skin biomarker experiment is conducted using the MatTek Human Skin EpiDermFT Skin Model (EFT 200; MatTek Corp., Ashland, Mass. USA). The MatTek Skin Model is a full thickness culture system that emulates normal human skin properties and function. It contains a three-dimensional, highly differentiated human epidermis with 8-12 cell layers including basal, spinous, granular and stratum corneum layers; the epidermis is grown above a human dermal fibroblast-containing collagen matrix. The MatTek cultures are air-interfaced, so that test substances can be applied topically to the stratum corneum surface. The cultures are supplied in 24-well, medium-supplemented agarose gels.
(§2) MatTek EFT-200 full thickness skin equivalent cultures used are examined for visual defects and equilibrated overnight after their arrival from the supplier. After treatment with test materials the cultures' viability is confirmed through MTT viability assay. […]
(§3) After treatment for 20-24 hours, replicate (3) cultures are extracted using a mild extraction buffer (T-per). The extract is then analyzed for hyaluronic acid and procollagen-1.
(§4) • 1. […] Analyze supernatant with the Micro BCA kit to quantitate protein concentration. • 4. […]

Procollagen I = Procollagen I ELISA on extracts of treated MatTek EpiDermFT (EFT-200) full thickness skin equivalent cultures; type: cell-based, human; conditions: topical 0.5%, 2.0% in water, 20-24 hours, EFT-200 cultures, vs vehicle Control, dose-responsive
Procedure: as §1, §2, §3, §4

**Q.** `CC(=O)N[C@@H]1[C@@H](O)[C@H](O)[C@@H](CO)O[C@H]1O` [n-Acetyl Glucosamine] was tested. Which “expression of hyaluronic acid” value (Hyaluronic Acid) did it give?
**A.** Its value is “significantly increased over Control”.

**Q.** What about the “expression of procollagen 1” value (Procollagen I) of the same molecule?
**A.** Its value is “significantly increased over Control”.
